This assay concerns the target NAD(P)H dehydrogenase [quinone] 1 (Homo sapiens, UniProt P15559).
NAD(P)H dehydrogenase [quinone] 1, sequence (P15559 whole entry): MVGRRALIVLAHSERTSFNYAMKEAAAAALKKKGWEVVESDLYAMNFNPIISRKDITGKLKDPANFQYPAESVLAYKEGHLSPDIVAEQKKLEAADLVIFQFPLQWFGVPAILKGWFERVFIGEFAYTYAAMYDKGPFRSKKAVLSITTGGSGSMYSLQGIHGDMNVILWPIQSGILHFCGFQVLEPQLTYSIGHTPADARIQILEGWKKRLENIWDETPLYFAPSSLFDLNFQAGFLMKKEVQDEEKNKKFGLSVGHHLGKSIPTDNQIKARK
Description: Inhibition of human recombinant NQO1
For the compound `Cn1c2cc(O)ccc2c2c3nc4ccccc4nc3cc(O)c21`, the IC50 – broadly, the concentration that gives 50% inhibition – was 3 µM.
The same measure for `O=C1c2ccccc2C(=O)c2c(O)c(NCCCN(CCO)CCO)cc(O)c21`: 3 µM; for `COc1ccc(OC)c2cc3ccccc3cc12`: 10 µM.
Regarding `O=C1c2ccccc2C(=O)c2c(O)c(NCCCNCCO)cc(O)c21`, half-maximal inhibition (IC50) was put at 17.5 µM.
The same measure for `O=C1c2ccccc2C(=O)c2c(O)c(NCCCN3CCOCC3)cc(O)c21`: 2 µM; for `Cn1ncc2c(Cl)ncnc21`: 105 µM; for `CCOc1ccc(OCC)cc1` [1,4-DIETHOXYBENZENE]: 3.5 µM.
The same measure for `COc1ccc2c(c1)-c1nn(CCCN(C)C)c3ccc([N+](=O)[O-])c(c13)N2` [PYRAZOLOACRIDINE]: 45 µM.
The same measure for `CNC(=O)N(OC(N)=O)C(C)=O`: 55 µM; for `Cc1cc(=O)cc(C)o1`: 20 µM; for `Nc1nc2cc3nc(N)c(N)nc3cc2nc1N`: 25 µM.
With `O=c1c2ccccc2c(=O)c2c1c(O)cc1[nH]c3ccccc3[nH]c12`, the midpoint of inhibition, the IC50, lay at 2 µM.
The same measure for `CCOC(=O)C1=NN(c2ccccc2)C(=O)/C1=C\NC(=S)N/N=C1\C(=O)Nc2ccccc21`: 35 µM; for `O=[N+]([O-])c1ccc(N/N=C(\N=N\c2ccccc2)c2nc3ccccc3[nH]2)c([N+](=O)[O-])c1`: 35 µM.
The same measure for `C(=N\NC1=NCCN1)/c1c2ccccc2c(/C=N/NC2=NCCN2)c2ccccc12` [BISANTRENE]: 25 µM; for `CN(C)CCNc1ccc2ncn3c4ccc(O)cc4c(=O)c1c23`: 10 µM.
The same measure for `Nc1ccc(O)c2c1C(=O)c1c(O)c(S(=O)(=O)O)cc(N)c1C2=O`: 7.5 µM.
